Assay type in all cases: cell-based
For one experiment, the target named is T1, human TLR7 (Homo sapiens, UniProt Q9NYK1).
T1 construct: host or cells: HEK-Blue cells
T1 sequence (Q9NYK1 27-1049): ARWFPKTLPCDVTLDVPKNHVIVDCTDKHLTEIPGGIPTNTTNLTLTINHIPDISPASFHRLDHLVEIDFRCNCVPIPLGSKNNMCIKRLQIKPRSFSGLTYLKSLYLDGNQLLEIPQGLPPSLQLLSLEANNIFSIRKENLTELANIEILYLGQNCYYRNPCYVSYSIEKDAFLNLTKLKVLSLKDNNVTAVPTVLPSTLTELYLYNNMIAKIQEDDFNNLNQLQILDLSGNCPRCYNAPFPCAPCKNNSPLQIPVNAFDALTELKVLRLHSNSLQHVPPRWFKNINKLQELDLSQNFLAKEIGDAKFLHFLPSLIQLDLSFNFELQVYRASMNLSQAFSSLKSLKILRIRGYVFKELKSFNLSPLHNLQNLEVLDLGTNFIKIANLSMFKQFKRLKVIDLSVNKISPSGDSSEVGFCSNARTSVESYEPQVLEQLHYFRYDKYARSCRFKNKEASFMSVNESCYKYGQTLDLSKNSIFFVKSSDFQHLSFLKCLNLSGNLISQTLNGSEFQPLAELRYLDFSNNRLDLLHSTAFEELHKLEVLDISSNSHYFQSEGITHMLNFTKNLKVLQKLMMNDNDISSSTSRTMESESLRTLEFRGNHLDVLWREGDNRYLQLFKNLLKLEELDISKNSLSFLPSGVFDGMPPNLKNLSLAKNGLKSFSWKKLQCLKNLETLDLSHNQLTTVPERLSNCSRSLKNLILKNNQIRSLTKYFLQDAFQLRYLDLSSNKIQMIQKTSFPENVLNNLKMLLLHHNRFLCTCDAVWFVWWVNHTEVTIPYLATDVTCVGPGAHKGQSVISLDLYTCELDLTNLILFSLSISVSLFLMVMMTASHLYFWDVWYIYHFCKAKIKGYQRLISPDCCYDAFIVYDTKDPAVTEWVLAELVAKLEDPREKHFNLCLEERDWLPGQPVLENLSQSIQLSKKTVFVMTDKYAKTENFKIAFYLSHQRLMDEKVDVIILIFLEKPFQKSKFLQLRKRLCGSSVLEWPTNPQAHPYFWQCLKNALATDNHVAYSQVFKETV
In words: TLR7 inhibition reporter assay (HEK-Blue cells, SEAP reporter, gardiquimod stimulation). To be noted: HEK-Blue cells overexpressing human TLR7, SEAP reporter, gardiquimod 7.5 μM. The gist of the method: (§1)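 SEAP readout after 22 h agonist exposure at 37 °C; final agonist levels were 7.5 μM gardiquimod (TLR7), 15.9 μM R848 (TLR8) and 5 nM ODN2006 (TLR9). Inhibitors, spanning 0.05 nM to 50 μM final, were applied 30 min beforehand.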
(A reporter such as luciferase makes a cellular process visible.)

The next experiment deals with T2, human TLR8 (Homo sapiens, UniProt Q9NR97).
T2 construct: host or cells: HEK-Blue cells
T2 sequence (Q9NR97 27-1041): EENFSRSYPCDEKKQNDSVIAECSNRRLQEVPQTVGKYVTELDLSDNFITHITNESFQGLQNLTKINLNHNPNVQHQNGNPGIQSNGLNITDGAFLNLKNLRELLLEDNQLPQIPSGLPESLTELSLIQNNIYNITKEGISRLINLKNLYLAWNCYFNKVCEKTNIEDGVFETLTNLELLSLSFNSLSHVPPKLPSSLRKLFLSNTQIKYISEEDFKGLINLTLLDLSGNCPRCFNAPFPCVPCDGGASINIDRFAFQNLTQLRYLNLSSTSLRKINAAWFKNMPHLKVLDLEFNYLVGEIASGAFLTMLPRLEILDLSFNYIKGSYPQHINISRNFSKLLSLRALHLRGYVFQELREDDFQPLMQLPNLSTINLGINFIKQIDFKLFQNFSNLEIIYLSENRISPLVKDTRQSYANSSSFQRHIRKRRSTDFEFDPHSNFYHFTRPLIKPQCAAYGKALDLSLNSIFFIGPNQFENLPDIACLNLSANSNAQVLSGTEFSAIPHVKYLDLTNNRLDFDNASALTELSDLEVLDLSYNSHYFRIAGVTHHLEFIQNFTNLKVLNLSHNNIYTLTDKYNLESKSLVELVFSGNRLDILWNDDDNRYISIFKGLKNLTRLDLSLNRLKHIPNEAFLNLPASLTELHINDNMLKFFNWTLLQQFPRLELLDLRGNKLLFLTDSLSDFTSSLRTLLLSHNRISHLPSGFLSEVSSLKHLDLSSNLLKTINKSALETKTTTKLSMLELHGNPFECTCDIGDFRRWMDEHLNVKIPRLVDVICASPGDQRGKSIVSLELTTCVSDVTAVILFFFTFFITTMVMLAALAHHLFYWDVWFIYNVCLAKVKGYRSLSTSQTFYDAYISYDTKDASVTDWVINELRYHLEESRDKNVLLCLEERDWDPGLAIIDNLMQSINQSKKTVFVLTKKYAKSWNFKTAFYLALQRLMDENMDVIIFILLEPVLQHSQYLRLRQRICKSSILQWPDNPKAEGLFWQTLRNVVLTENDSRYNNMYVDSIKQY
Nature of the experiment: TLR8 inhibition reporter assay (HEK-Blue cells, SEAP reporter, R848 stimulation). The following applies: HEK-Blue cells overexpressing human TLR8, SEAP reporter, R848 15.9 μM. The gist of the method:
as §1

The target of the next experiment is T3, human TLR9 (Homo sapiens, UniProt Q9NR96).
T3 construct: host or cells: HEK-Blue cells
T3 sequence (Q9NR96 26-1032): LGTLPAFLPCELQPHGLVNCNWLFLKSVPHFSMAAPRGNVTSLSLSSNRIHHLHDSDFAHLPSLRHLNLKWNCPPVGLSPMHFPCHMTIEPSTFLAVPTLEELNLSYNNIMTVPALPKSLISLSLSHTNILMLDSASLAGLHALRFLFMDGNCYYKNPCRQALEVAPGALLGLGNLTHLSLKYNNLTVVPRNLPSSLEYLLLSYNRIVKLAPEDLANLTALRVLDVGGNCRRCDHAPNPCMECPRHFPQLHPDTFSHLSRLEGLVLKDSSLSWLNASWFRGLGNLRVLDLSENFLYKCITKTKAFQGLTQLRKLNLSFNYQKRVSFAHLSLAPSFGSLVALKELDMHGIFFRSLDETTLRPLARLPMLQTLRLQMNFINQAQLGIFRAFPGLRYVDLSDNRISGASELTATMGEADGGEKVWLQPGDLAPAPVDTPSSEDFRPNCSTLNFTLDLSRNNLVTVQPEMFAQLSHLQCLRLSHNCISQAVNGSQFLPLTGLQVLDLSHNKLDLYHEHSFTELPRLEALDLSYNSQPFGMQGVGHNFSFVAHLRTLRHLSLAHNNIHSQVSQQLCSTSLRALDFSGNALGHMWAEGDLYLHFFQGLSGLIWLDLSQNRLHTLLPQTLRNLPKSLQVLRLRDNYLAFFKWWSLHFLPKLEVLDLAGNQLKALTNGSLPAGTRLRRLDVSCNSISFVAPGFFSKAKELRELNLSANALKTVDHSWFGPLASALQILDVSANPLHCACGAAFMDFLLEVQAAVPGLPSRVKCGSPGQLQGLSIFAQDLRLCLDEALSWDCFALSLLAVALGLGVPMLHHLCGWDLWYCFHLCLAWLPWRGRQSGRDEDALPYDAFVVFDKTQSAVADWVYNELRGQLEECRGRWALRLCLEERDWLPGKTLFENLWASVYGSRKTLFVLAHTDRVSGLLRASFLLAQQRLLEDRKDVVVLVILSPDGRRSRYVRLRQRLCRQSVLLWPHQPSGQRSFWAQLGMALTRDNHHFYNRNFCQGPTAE
In words: TLR9 inhibition reporter assay (HEK-Blue cells, SEAP reporter, ODN2006 stimulation). To be noted: HEK-Blue cells overexpressing human TLR9, SEAP reporter, ODN2006 5 nM. The gist of the method: as §1

From patent publication US11878975B2, “Substituted indole compounds useful as TLR inhibitors” (BRISTOL-MYERS SQUIBB COMPANY, priority 2017, dated 2024) come the findings set out here.

For orientation: IC50 means the midpoint of a concentration-inhibition curve.

Consider `Cc1c(-c2[nH]c3ccc(C4CC5CN(CCS(C)(=O)=O)CC5C4)cc3c2C(C)C)cn2ncnc2c1C` (stereo not drawn) [Example 514], for which the IC50 at human TLR7 was 1 nM; at human TLR8, 18 nM; on human TLR9, 15700 nM.

Regarding `COc1cc(-c2[nH]c3ccc(C4CCC(N(C)C(C)C)C4)cc3c2C(C)C)cn2ncnc12` (single isomer, unassigned) [Example 276, N-isopropyl-3-(3-isopropyl-2-(8-methoxy-[1,2,4]triazolo[1,5-a]pyridin-6-yl)-1H-indol-5-yl)-N-methylcyclopentan-1-amine], the IC50 against human TLR7 came out at 0.64 nM; on human TLR8, 0.9 nM; at human TLR9, 468 nM.

As for `COc1cc(-c2[nH]c3ccc(C4CCCN(C(=O)CN(C)C)C4)cc3c2C(C)C)cn2ncnc12` (stereo not drawn) [Example 192], the concentration for half-maximal inhibition (IC50) against human TLR7 is 0.49 nM; on human TLR8, 5.9 nM; against human TLR9 it was 2830 nM.

`Cc1c(-c2[nH]c3ccc(C4CCC(NC5COC5)CC4)cc3c2C(C)C)cn2cnnc2c1C` (stereo not drawn) [Example 523]: the values for the IC50 on human TLR7, on human TLR8 and against human TLR9 were 0.48 nM, 5.1 nM and 2720 nM, respectively.

As to `COc1cc(-c2[nH]c3ccc(C4CCC(N(C)C(=O)CN(C)C)CC4)cc3c2C(C)C)cn2ncnc12` (stereo not drawn) [Example 147, 2-(dimethylamino)-N-(4-(3-isopropyl-2-(8-methoxy-[1,2,4]triazolo[1,5-a]pyridin-6-yl)-1H-indol-5-yl)cyclohexyl)-N-methylacetamide], the half-inhibitory concentration (IC50) against human TLR7 stood at 0.43 nM; at human TLR8, 5.1 nM; against human TLR9 it was 1490 nM.

On to `Cc1c(-c2[nH]c3ccc(C4CC5CN(CC#N)CC5C4)cc3c2C(C)C)cn2ncnc2c1C` (stereo not drawn) [Example 512], for which the results for the IC50 against human TLR7, against human TLR8 and at human TLR9 were 3 nM, 15 nM and 16300 nM, respectively.

Take `COc1cc(-c2[nH]c3ccc(C4CN(C)CCO4)cc3c2C(C)C)cn2ncnc12` (stereo not drawn) [Example 301]: the IC50 was 7 nM at human TLR7, 0.56 nM on human TLR8 and 6140 nM against human TLR9.

For the molecule `Cc1cc(-c2[nH]c3ccc(C4CCC(O)CC4)cc3c2C(C)C)cc(C)n1` (single isomer, unassigned) [Example 172, 4-(2-(2,6-dimethylpyridin-4-yl)-3-isopropyl-1H-indol-5-yl)cyclohexanol], the values for the concentration for half-maximal inhibition (IC50) against human TLR7, at human TLR8 and on human TLR9 were 8 nM, 35 nM and 15800 nM, respectively.

Turning to `Cc1cc(-c2[nH]c3ccc([C@@H]4C[C@H]4C(=O)N(C)C4CCNCC4)cc3c2C(C)C)ccn1` [Example 462], the IC50 amounted to 25 nM against human TLR7, 27 nM on human TLR8 and 116 nM against human TLR9.

Regarding `COc1cc(-c2[nH]c3ccc(C4CCCNC4)cc3c2C(C)C)cn2ncnc12` (single isomer, unassigned) [Example 182], the concentration for half-maximal inhibition (IC50) is 1 nM on human TLR7, 5.3 nM against human TLR8 and 2370 nM at human TLR9.

Consider `Cc1cc(-c2[nH]c3ccc(C4CCCN(Cc5c[nH]c(C)n5)C4)cc3c2C(C)C)cc(C)n1` (stereo not drawn) [Example 247], for which the IC50 on human TLR7 was 8 nM; against human TLR8, 6.9 nM; on human TLR9, 116 nM.

Turning to `CNCC(=O)NC1(C)CCC(c2ccc3[nH]c(-c4cc(OC)c5ncnn5c4)c(C(C)C)c3c2)CC1` (stereo not drawn) [Example 155, N-(4-(3-isopropyl-2-(8-methoxy-[1,2,4]triazolo[1,5-a]pyridin-6-yl)-1H-indol-5-yl)-1-methylcyclohexyl)-2-(methylamino)acetamide], the IC50 against human TLR7 was found to be 6 nM; on human TLR8, 24 nM; against human TLR9, 3700 nM.

With `COc1cc(-c2[nH]c3ccc(C4CCC(N5CC(F)C5)CC4)cc3c2C(C)C)cn2ncnc12` (stereo not drawn) [Example 23], the half-inhibitory concentration (IC50) on human TLR7 is 2 nM; on human TLR8, 9.2 nM; on human TLR9, 2840 nM.

`Cc1c(-c2[nH]c3ccc(C4CCC(N(C)C)CC4)cc3c2C(C)C)cn(C)c(=O)c1C` (stereo not drawn) [Example 475]: the figures for the IC50 against human TLR7, on human TLR8 and against human TLR9 were 26 nM, 28 nM and 10600 nM, respectively.

In the case of `Cc1c(-c2[nH]c3ccc(C4CC(NC(=O)CN(C)C)C4)cc3c2C(C)C)cn2ncnc2c1C` (stereo not drawn) [Example 573], the figures for the IC50 at human TLR7, at human TLR8 and against human TLR9 were 3 nM, 2.3 nM and 12600 nM, respectively.

`COc1cc(-c2[nH]c3ccc(C4CCCN(C5COC5)C4)cc3c2C(C)C)cn2ncnc12` (stereo not drawn) [Example 240]: the IC50 on human TLR7 was found to be 5 nM; against human TLR8, 4.2 nM; against human TLR9 it was 11600 nM.

Consider `CCN(C)C1CCC(c2ccc3[nH]c(-c4cc(C)c5ncnn5c4)c(C(C)C)c3c2)CC1` (stereo not drawn) [Example 62], for which the values for the IC50 at human TLR7, against human TLR8 and against human TLR9 were 0.98 nM, 6.3 nM and 1830 nM, respectively.

Turning to `COc1cc(-c2[nH]c3ccc(C4CCC(NC(=O)CN5CCOCC5)CC4)cc3c2C(C)C)cn2ncnc12` (stereo not drawn) [Example 142], the IC50 is 2 nM against human TLR7, 14 nM against human TLR8 and 4410 nM against human TLR9.

For the molecule `Cc1c(-c2[nH]c3ccc(C4CCC(NC5COC5)CC4)cc3c2C(C)C)cn(C)c(=O)c1C` (stereo not drawn) [Example 477], the 50% inhibitory concentration (IC50) was 2 nM against human TLR7, 1.8 nM against human TLR8 and 8210 nM on human TLR9.
